# Measured values: patent EP4800013A1, “PARG INHIBITOR” (Shanghai Qilu Pharmaceutical Research and Development …, priority 2023, dated 2025)
# Experiments:
# [1] = test system: KURAMOCHI cells; assay: Inhibition of proliferation of KURAMOCHI cells (CellTiter-Glo, intracellular ATP); assay type: cell-based; settings: 168 h, incubated for 7 days, read-out: IC50 against KURAMOCHI cells
# Experimental: In this experiment, the inhibitory effect of the compounds of the present disclosure on the proliferation of the cancer cell line KURAMOCHI was evaluated by measuring intracellular ATP levels using a bioluminescent assay, and the half maximal inhibitory concentration (IC50) was determined.
# RPMI 1640 medium (Cat. No. 11875-093), fetal bovine serum (10099-141), and 100× Pen/Strep (15070-063) were purchased from GIBCO. CellTiter-Glo Luminescent Cell Viability Assay reagent (Cat. No. G7573) was purchased from Promega.
# • 1) Day 1: KURAMOCHI cells were counted using a cell counter and seeded into a 96-well culture plate at a density of 4000 cells per well in 100 µL medium. The plate was incubated overnight in an incubator (37°C, 5% CO2). • 2) Day 2: Using a D300e digital dispenser (TECAN), 500 nL of serially diluted test compounds of the present disclosure (starting at 10 µM, a total of 9 concentrations, 1:4 dilution) were added to the cells in the culture plate. The final concentration of DMSO was 0.5%. The cell culture plate was incubated for 7 days in a cell culture incubator (37°C, 5% CO2). Control group 1 received only medium and DMSO (100% inhibition group). Control group 2 received only DMSO (0% inhibition group). The final concentration of DMSO in both groups was 0.5%. • 3) Day 9: 100 µL of CellTiter-Glo reagent was added to each well. The plate was shaken at 500 rpm for 2 minutes, centrifuged at 1000 rpm for 1 minute, and then incubated at room temperature in the dark for 10 minutes to stabilize the luminescence signal. • 4) Luminescence signals were measured using an EnVision microplate reader (PerkinElmer). • 5) Data analysis was performed using GraphPad Prism 8. The IC50 values of the compounds of the present disclosure were calculated as follows. The CTG signal values were analyzed. The average inhibition rate of control group 1 (100% inhibition group) was set as the relative inhibition rate of 100%. The average inhibition rate of control group 2 (0% inhibition group) was set as the relative inhibition rate of 0%. The CTG signal values were converted into relative inhibition rates. The inhibition percentage (inhibition%) for each concentration of the compounds of the present disclosure was calculated according to the following formula: Inhibition% = (b−x)/(b−a)*100%; [formula] • a = CTG value (highest concentration), b = CTG value (blank well), x = CTG value (test well). • IC50 was calculated using GraphPad Prism 8. • (1) The concentration and inhibition rate corresponding to each well were recorded. Statistical calculation was performed using Log10 (compound concentration). • (2) The data were input into GraphPad Prism 8 and Analysis was selected. • (3) Nonlinear regression (curve fit) was selected. • (4) Log (inhibitor) vs. response - Variable slope was selected. • (5) The calculation formula was selected, and the calculation was performed according to the following formula: Y = Bottom + (Top - Bottom) / (1 + 10 ^ ((LogIC50 - X) * HillSlope)); X: log of dose or concentration; Y: response; Top and Bottom: maximum and minimum response. • (6) The IC50 values were calculated by fitting the data. Table 16: Inhibitory effect of the compounds of the present disclosure on the proliferation of KURAMOCHI cells
# [2] = target: T1, PARG (Homo sapiens, UniProt Q86W56); assay: Enzymatic inhibitory activity against PARG, HTRF assay; assay type: biochemical; settings: HTRF; PARylated PARP1 protein as substrate; 60 minutes at room temperature; read-out: IC50 against PARG enzyme
# T1 construct: made in house
# T1 sequence (Q86W56 whole entry): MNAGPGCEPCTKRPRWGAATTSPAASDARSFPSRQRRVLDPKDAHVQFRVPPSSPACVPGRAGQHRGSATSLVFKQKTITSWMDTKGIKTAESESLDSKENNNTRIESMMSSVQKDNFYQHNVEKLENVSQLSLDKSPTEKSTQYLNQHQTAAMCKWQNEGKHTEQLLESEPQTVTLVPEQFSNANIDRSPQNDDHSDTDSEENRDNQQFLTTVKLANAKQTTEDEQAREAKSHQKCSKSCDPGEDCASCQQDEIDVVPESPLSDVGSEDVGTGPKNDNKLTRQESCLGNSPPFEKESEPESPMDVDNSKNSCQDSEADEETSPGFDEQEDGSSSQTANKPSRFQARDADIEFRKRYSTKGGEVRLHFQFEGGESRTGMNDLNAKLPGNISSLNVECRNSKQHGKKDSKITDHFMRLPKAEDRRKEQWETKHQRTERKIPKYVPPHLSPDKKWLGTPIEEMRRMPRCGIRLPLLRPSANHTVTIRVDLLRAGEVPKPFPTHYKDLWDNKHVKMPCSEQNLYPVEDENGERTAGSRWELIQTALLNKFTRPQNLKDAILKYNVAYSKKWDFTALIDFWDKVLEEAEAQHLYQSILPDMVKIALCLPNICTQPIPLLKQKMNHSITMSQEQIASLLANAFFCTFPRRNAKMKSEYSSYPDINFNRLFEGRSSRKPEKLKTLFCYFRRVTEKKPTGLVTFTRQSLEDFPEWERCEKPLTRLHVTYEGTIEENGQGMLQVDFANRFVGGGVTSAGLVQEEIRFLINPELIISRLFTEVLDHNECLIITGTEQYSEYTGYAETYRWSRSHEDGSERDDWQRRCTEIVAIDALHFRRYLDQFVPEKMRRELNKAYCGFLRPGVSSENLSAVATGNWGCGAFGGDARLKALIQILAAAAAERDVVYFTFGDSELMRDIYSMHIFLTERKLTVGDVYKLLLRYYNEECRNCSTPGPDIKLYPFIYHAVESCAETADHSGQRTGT
# Experimental: In this experiment, the enzymatic inhibitory activity of the compounds of the present disclosure against PARG was determined using an HTRF (homogeneous time-resolved fluorescence) assay.
# HTRF assay reagents were purchased from PerkinElmer (Cat. Nos. 61HISTLB and 610SAXLB). The purified protein was prepared in-house.
# PARG enzyme reaction buffer: 50 mM Tris (pH 7.4), 0.1 mg/mL BSA, 3 mM EDTA, 0.4 mM EGTA, 1 mM DTT, 50 mM KCl, and 0.01% Tween 20.
# • 1) Using an ultra-micro pipette, the compounds of the present disclosure were serially diluted (starting at 10 µM with 3- to 5-fold serial dilutions) and added to a 384-well reaction plate, with each concentration tested in duplicate wells. Control group 1 was added with 10 µM control compound (100% inhibition group). Control group 2 was added with DMSO (0% inhibition group). After compound addition, the 384-well plate was centrifuged at 1000 rpm for 1 minute. • 2) 2.5 µL of PARG protein was added to each well and incubated with the compounds of the present disclosure at room temperature for 15 minutes, followed by centrifugation at 1000 rpm for 1 minute. • 3) 2.5 µL of PARylated PARP1 protein was added to each well and incubated at room temperature for 60 minutes, followed by centrifugation at 1000 rpm for 1 minute. • 4) 5 µL of His-Tb & SA-XL665 HTRF assay reagents were added to each well and incubated at room temperature for 60 minutes, followed by centrifugation at 1000 rpm for 1 minute. • 5) […] were measured using a PHERAstar FSX microplate reader from BMG. • 6) Data analysis was performed using GraphPad Prism 8. The IC50 values of the compounds of the present disclosure were calculated as follows. […] The average value of duplicate wells in control group 2 (0% inhibition group) was set as the relative inhibition rate of 0%. The HTRF signal values were converted into relative inhibition rates. The IC50 values of the compounds were calculated by fitting the data to a four-parameter logistic model. Table 15: Enzymatic inhibitory activity of the compounds of the present disclosure against PARG
smiles,measurement,setting,value
Cn1c(=O)n(-c2nnc(C(F)F)s2)c2cc(S(=O)(=O)NC3(C)CC3)cc(N3CCN(C(=O)C(C)(C)O)CC3)c21 [Compound A030],IC50,[1],10 nM
same,IC50,[2],18.2 nM
COCc1nc2n(-c3nnc(C(F)F)s3)c3cc(S(=O)(=O)NC4(C)CC4)cc(N4C[C@H](C)N[C@@H](C)C4)c3n2n1 [Compound 065U],IC50,[1],2 nM
same,IC50,[2],0.5 nM
C=CCn1c(=O)n(-c2nnc(C(F)F)s2)c2cc(S(=O)(=O)NC3(C#N)CC3)cc(N3CCN(C(=O)C(C)(C)NC)CC3)c21 [Compound 067Q],IC50,[1],13 nM
same,IC50,[2],5 nM
CC(C)C(=O)N1CCN(c2cc(S(=O)(=O)NC3(C)CC3)cc3c2n(C(C)C)c(=O)n3-c2nnc(C(F)F)s2)CC1 [Compound A019],IC50,[1],16 nM
same,IC50,[2],18.1 nM
C=CCn1c(=O)n(-c2nnc(C(F)F)s2)c2cc(S(=O)(=O)NC3(C#N)CC3)cc(N3CCN([S+]([O-])C(C)C)CC3)c21 (stereo not shown) [Compound 074M],IC50,[1],16 nM
same,IC50,[2],6.2 nM
C=CCn1c(=O)n(-c2nnc(C(F)F)s2)c2cc(S(=O)(=O)NC3(C#N)CC3)cc(N3CCN(S(=O)(=O)C4CC4)CC3)c21 [Compound 067R],IC50,[1],6 nM
same,IC50,[2],3.4 nM
C=CCn1c(=O)n(-c2nnc(C(F)F)s2)c2cc(S(=O)(=O)NC3(C#N)CC3)cc(N3CCN(C(=O)C(C)(C)OC)CC3)c21 [Compound 067L],IC50,[1],4 nM
same,IC50,[2],4.9 nM
C[C@H]1CN(c2cc(S(=O)(=O)NC3(C)CC3)cc3c2n2nc(NC(=O)C4CC4)nc2n3-c2nnc(C(F)F)s2)C[C@H](C)N1 [Compound 084L],IC50,[1],29 nM
same,IC50,[2],1.1 nM
C=CCn1c(=O)n(-c2nnc(C(F)F)s2)c2cc(S(=O)(=O)NC3(C#N)CC3)cc(N3CCN(S(=O)(=O)C(C)(C)C)CC3)c21 [Compound 074A],IC50,[1],1 nM
same,IC50,[2],0.8 nM
C[C@H]1CN(c2cc(S(=O)(=O)NC3(C)CC3)cc3c2n2nc(C(=O)NC4CC4)nc2n3-c2nnc(C(F)F)s2)C[C@H](C)N1 [Compound 084J],IC50,[1],16 nM
same,IC50,[2],0.7 nM
C[C@H]1CN(c2cc(S(=O)(=O)NC3(C)CC3)cc3c2nc(OC2CC2)n3-c2nnc(C(F)F)s2)C[C@H](C)N1 [Compound 077F],IC50,[1],9 nM
same,IC50,[2],9.2 nM
C[C@H]1CN(c2cc(S(=O)(=O)NC3(C)CC3)cn3c(-c4nnc(C(F)F)s4)c([C@H]4CCCO4)nc23)C[C@H](C)N1 [Compound 080B1],IC50,[1],4 nM
same,IC50,[2],2.2 nM
C[C@H]1CN(c2cc(S(=O)(=O)NC3(C)COC3)cc3c2c2nccnc2n3-c2nnc(C(F)F)s2)C[C@H](C)N1 [Compound 065L],IC50,[1],18 nM
same,IC50,[2],5.5 nM
C[C@H]1CN(c2cc(S(=O)(=O)NC3(C#N)CC3)cc3c2nc(OC2CC2)n3-c2nnc(C(F)F)s2)C[C@H](C)N1 [Compound 077A],IC50,[1],11 nM
same,IC50,[2],10.4 nM
Cn1c(=O)n(-c2nnc(C(F)F)s2)c2cc(S(=O)(=O)NC3(C)CC3)cc(N3CCN(C(=O)N4CCCC4)CC3)c21 [Compound A027],IC50,[1],5 nM
same,IC50,[2],3.8 nM
C=CCn1c(=O)n(-c2nnc(C(F)(F)F)s2)c2cc(S(=O)(=O)NC3(C#N)CC3)cc(N3CCN(C(=O)C(C)C)CC3)c21 [Compound 070A],IC50,[1],18 nM
same,IC50,[2],15.3 nM
C=CCn1c(=O)n(-c2nnc(C(F)F)s2)c2cc(S(=O)(=O)NC3(C#N)CC3)cc(N3CCN(C(=O)C(C)(C)O)CC3)c21 [Compound A053],IC50,[1],37 nM
same,IC50,[2],6.7 nM
C=CCn1c(=O)n(-c2nnc(C(F)F)s2)c2cc(S(=O)(=O)NC3(C#N)CC3)cc(N3CCN(C(=O)C(C)(C)O)[C@H](C)C3)c21 [Compound 071C2],IC50,[1],50 nM
same,IC50,[2],8.9 nM
C[C@H]1CN(c2cc(S(=O)(=O)NC3(C#N)CC3)cc3c2ncn3-c2nnc(C(F)F)s2)C[C@H](C)N1C(=O)N(C)C [Compound B017],IC50,[1],20 nM
same,IC50,[2],31.5 nM
C=CCn1c(=O)n(-c2nnc(C(F)F)s2)c2cc(S(=O)(=O)NC3(C#N)CC3)cc(N3CCN(C(=O)C4(C)CCCO4)CC3)c21 (stereo not shown) [Compound 076J],IC50,[1],9 nM
same,IC50,[2],7 nM
C[C@H]1CN(c2cc(S(=O)(=O)NC3(C)CC3)cc3c2nc(C2CCCCO2)n3-c2nnc(C(F)F)s2)C[C@H](C)N1 (stereo partly shown) [Compound 077X],IC50,[1],16 nM
same,IC50,[2],21.3 nM
C=CCn1c(=O)n(-c2nnc(C(F)F)s2)c2cc(S(=O)(=O)NC3(C#N)CC3)cc(N3CCN(C(=O)C4CCC4)CC3)c21 [Compound 067U],IC50,[1],21 nM
same,IC50,[2],20 nM
C=CCn1c(=O)n(-c2nnc(C(F)F)s2)c2cc(S(=O)(=O)NC3(C#N)CC3)cc(N3CCN(C(=O)N(C)C)CC3)c21 [Compound A041],IC50,[1],11 nM
same,IC50,[2],4.4 nM
C=CCn1c(=O)n(-c2nnc(C(F)F)s2)c2cc(S(=O)(=O)NC3(C#N)CC3)cc(N3CCN(C(=O)C4CC4)CC3)c21 [Compound 067S],IC50,[1],14 nM
same,IC50,[2],13.3 nM
Cn1c(=O)n(-c2nnc(C(F)F)s2)c2cc(S(=O)(=O)NC3(C)CC3)cc(N3CCNCC3)c21 [Compound A005],IC50,[1],45 nM
same,IC50,[2],30.4 nM
CC(C)C(=O)N1CCN(c2cc(S(=O)(=O)NC3(C)CC3)cc3c2ncn3-c2nnc(C(F)F)s2)CC1 [Compound B002],IC50,[1],16 nM
same,IC50,[2],11.6 nM
CC(C)c1nc2n(-c3nnc(C(F)F)s3)c3cc(S(=O)(=O)NC4(C)CC4)cc(N4C[C@H](C)N[C@@H](C)C4)c3n2n1 [Compound 065Y],IC50,[1],6 nM
same,IC50,[2],0.8 nM
C[C@H]1CN(c2cc(S(=O)(=O)NC3(C)CC3)cc3c2nc(C2CC4(CC4)CO2)n3-c2nnc(C(F)F)s2)C[C@H](C)N1 (stereo partly shown) [Compound 079M],IC50,[1],15 nM
same,IC50,[2],3.8 nM
COc1nc2c(N3CCN(C(=O)N(C)C)CC3)cc(S(=O)(=O)NC3(C#N)CC3)cc2n1-c1nnc(C(F)F)s1 [Compound B019],IC50,[1],19 nM
same,IC50,[2],6.3 nM
COC(C)(C)c1nc2n(-c3nnc(C(F)F)s3)c3cc(S(=O)(=O)NC4(C)CC4)cc(N4C[C@H](C)N[C@@H](C)C4)c3n2n1 [Compound 084H],IC50,[1],3 nM
same,IC50,[2],0.7 nM
CC(C)C(=O)N1CCN(c2cc(S(=O)(=O)NC3(C)COC3)cc3c2n(C)c(=O)n3-c2nnc(C(F)F)s2)CC1 [Compound A037],IC50,[1],14 nM
same,IC50,[2],6.8 nM
CC(C)C(=O)N1CCN(c2cc(S(=O)(=O)NC3(CF)CC3)cc3c2n(C)c(=O)n3-c2nnc(C(F)F)s2)CC1 [Compound A033],IC50,[1],9 nM
same,IC50,[2],4 nM
